Results taken from PubChem BioAssay (NCI).
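The compound was tested at five concentrations on cells cultured in 96-well plates, with a 48-hour exposure period. GI50: concentration for 50% inhibition of growth. TGI is the concentration that stops growth completely.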

Tests used:
Experiment in all cases: inhibition of tumour cell growth, NCI panel, 48 h
[1] = system: HT29 colon
[2] = system: T-47D breast
[3] = system: SF-268 CNS
[4] = system: OVCAR-8 ovarian
[5] = system: HS 578T breast
[6] = system: SW-620 colon
[7] = system: HOP-92 NSCLC
[8] = system: SF-539 CNS
[9] = system: HL-60(TB) leukemia
[10] = system: UACC-257 melanoma

Row | SMILES | GI50 [1] [µM] | TGI [1] [µM] | GI50 [2] [µM] | TGI [2] [µM] | GI50 [3] [µM] | TGI [3] [µM] | GI50 [4] [µM] | TGI [4] [µM] | GI50 [5] [µM] | TGI [5] [µM] | GI50 [6] [µM] | TGI [6] [µM] | GI50 [7] [µM] | TGI [7] [µM] | GI50 [8] [µM] | TGI [8] [µM] | TGI [9] [µM] | TGI [10] [µM] | GI50 [9] [µM] | GI50 [10] [µM]
1 | O=C1c2ccccc2-c2c1c1cc3c(cc1c(=O)n2CCCCl)OCO3 | > 100 | > 100 | > 100 | > 100 | 51.7 | > 100 | 22.6 | > 100 | > 100 | > 100 | 94.5 | > 100 | 41.1 | > 100 | 51.4 | > 100 | – | – | – | –
2 | OCc1c(-c2cccc3ccccc23)sc(-c2cccc3ccccc23)c1CO | – | 31.5 | – | – | – | 26.9 | – | 25.7 | – | – | – | 29.2 | – | 30.7 | – | 28.8 | 42.5 | 25.6 | – | –
3 | O=C1CCC(NC(=O)c2ccccc2)C(=O)N1 (centres undefined) | – | > 100 | – | > 100 | – | > 100 | – | > 100 | – | > 100 | – | > 100 | – | > 100 | – | > 100 | – | > 100 | – | –
4 | O=[N+]([O-])c1ccc(NSc2ccccc2)cc1 | – | – | – | – | – | > 100 | – | 45.6 | – | – | – | > 100 | – | > 100 | – | 44.6 | 47.5 | > 100 | – | –
5 | Cc1nc2nnc(C)n2c2c1C(=O)Nc1ccccc1N2 | – | > 100 | – | – | – | > 100 | – | > 100 | – | – | – | > 100 | – | > 100 | – | > 100 | > 100 | > 100 | – | –
6 | O=S(=O)(O)C(O)/C=C/c1ccccc1 (centres undefined) | – | > 100 | – | – | – | > 100 | – | > 100 | – | – | – | > 100 | – | – | – | – | > 100 | > 100 | – | –
7 | Cc1cccc2c3ccc4c(c3n(C)c12)C(=O)C=CC4=O | – | > 100 | – | – | – | > 100 | – | > 100 | – | – | – | > 100 | – | > 100 | – | > 100 | 41.9 | > 100 | – | –
8 | O=C(O)/C=C/C(=O)Nc1ncn[nH]1 | – | > 100 | – | > 100 | – | > 100 | – | > 100 | – | > 100 | – | > 100 | – | > 100 | – | > 100 | – | > 100 | – | –
9 | CN1CCCNCCN(CCc2ccccn2)CCCN(C)CC1 | – | > 100 | – | – | – | > 100 | – | > 100 | – | – | – | > 53.6 | – | > 100 | – | > 100 | > 63.6 | > 100 | – | –
10 | S=C1NCCN1C1=Nc2ccccc2CO1 | > 100 | > 100 | 73.5 | > 100 | > 100 | > 100 | > 100 | > 100 | – | – | > 100 | > 100 | > 100 | > 100 | > 100 | > 100 | > 100 | > 100 | > 100 | > 100
11 | COc1cccc(-c2nc(-c3cnccn3)n(Cc3ccccc3)n2)c1 | – | > 100 | – | > 100 | – | > 100 | – | > 100 | – | – | – | > 100 | – | 81.1 | – | > 100 | > 100 | > 100 | – | –
12 | COc1cccc(-c2nn(-c3ccccc3)cc2-c2ccnc(NCCCNS(=O)(=O)c3cccc(F)c3)c2)c1 | 2.87 | 18.8 | 1.54 | 5.27 | 5.63 | > 100 | 3.93 | > 100 | 6.52 | > 100 | 5.54 | > 100 | 2.42 | 9.63 | – | – | 24.7 | 39.3 | 3.52 | 5.12
13 | CN1CCN(C(=S)N(C)C(=O)c2ccc(Cl)cc2)CC1 | – | > 100 | – | > 100 | – | > 100 | – | > 100 | – | > 100 | – | > 100 | – | > 100 | – | – | > 100 | > 100 | – | –
14 | C[C@]12CCC(=O)C=C1CC[C@@H]1C2CC[C@]2(C)NC(=O)C(C#N)CC12 (some centres undefined) | – | > 100 | – | – | – | – | – | > 100 | – | – | – | > 100 | – | – | – | > 100 | > 100 | > 100 | – | –
15 | COc1ccc(CNC(=O)COc2ccc(/C=N/Nc3nc4ccccc4s3)cc2)cc1 | – | – | 1.69 | 5.36 | 3.04 | 12.2 | 3.93 | > 100 | 2.24 | 19.1 | 5.23 | > 100 | 1.4 | 4.41 | 1.65 | 4.18 | > 100 | > 100 | > 100 | 4.2
16 | Cc1c(C(=O)/C=C/c2cccc3ccccc23)[n+](=O)c2ccccc2n1[O-] | – | 24.8 | – | – | – | 29.3 | – | 24.9 | – | – | – | 22.7 | – | 22.5 | – | 23.8 | 27.3 | 26.7 | – | –
17 | COc1ccc(/C=C(/C(=O)O)c2cc(OC)c(OC)c(OC)c2)cc1 | – | > 100 | – | – | – | > 100 | – | > 100 | – | – | – | > 100 | – | > 100 | – | 51.2 | – | > 100 | – | –
18 | CC1=CCCC(OC(N)=O)C1 (centres undefined) | – | > 100 | – | – | – | > 100 | – | > 100 | – | – | – | > 100 | – | > 100 | – | > 100 | > 100 | > 100 | – | –
19 | CCOC(=O)c1c(N)n(-c2ccccc2)c(=S)n(-c2ccccc2)c1=O | – | > 100 | – | > 100 | – | > 100 | – | > 100 | – | > 100 | – | > 100 | – | > 100 | – | – | > 100 | > 100 | – | –
20 | C/C(=N\NC(N)=S)c1ccc(C)cc1C | – | > 100 | – | – | – | – | – | > 100 | – | – | – | > 100 | – | > 100 | – | > 100 | > 100 | > 100 | – | –
21 | OCCNCO | – | > 100 | – | – | – | > 100 | – | > 100 | – | – | – | > 100 | – | > 100 | – | > 100 | > 100 | > 100 | – | –
22 | C1CN2N3CCCC23C1 (centres undefined) | – | > 100 | – | – | – | > 100 | – | > 100 | – | – | – | > 100 | – | – | – | > 100 | > 100 | > 100 | – | –
23 | O=C1CC[C@H]2CNC(=O)C[C@H]2C1 | – | > 100 | – | – | – | > 100 | – | > 100 | – | – | – | > 100 | – | > 100 | – | > 100 | > 100 | > 100 | – | –
